# Data as given in ChEMBL document CHEMBL1129763, “Acylhydrazones as M1/M3 selective muscarinic agonists” (Bioorg Med Chem Lett, 1996).
# How the values were obtained:
# [1] = molecular target: T1, Muscarinic acetylcholine receptor M1 (Rattus norvegicus, UniProt P08482); assay: Ability to displace [3H]- pirenzepine from M1 receptor in rat hippocampal membranes; type: cell membranes, Hippocampus
# T1 sequence (P08482 whole entry): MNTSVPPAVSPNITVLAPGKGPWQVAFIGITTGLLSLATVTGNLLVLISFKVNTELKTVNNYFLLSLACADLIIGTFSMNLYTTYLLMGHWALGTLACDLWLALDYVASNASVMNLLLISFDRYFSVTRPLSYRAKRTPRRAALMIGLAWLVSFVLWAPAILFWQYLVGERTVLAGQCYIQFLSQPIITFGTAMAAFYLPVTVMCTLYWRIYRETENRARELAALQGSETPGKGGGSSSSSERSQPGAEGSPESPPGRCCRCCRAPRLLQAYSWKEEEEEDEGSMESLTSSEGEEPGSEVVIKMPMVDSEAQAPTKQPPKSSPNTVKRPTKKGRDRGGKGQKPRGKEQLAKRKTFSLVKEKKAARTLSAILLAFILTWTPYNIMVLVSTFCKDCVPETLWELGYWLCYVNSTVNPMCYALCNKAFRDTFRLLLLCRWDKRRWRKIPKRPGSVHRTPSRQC
# [2] = molecular target: Muscarinic acetylcholine receptor M3 (Cavia porcellus) (UniProt Q8VH26); assay: Compound was evaluated for intrinsic activity at M3 receptor by measuring isometric contractions of the isolated guinea pig trachea; type: tissue-based
# Chain of Muscarinic acetylcholine receptor M3 (Cavia porcellus) (Q8VH26 1-587): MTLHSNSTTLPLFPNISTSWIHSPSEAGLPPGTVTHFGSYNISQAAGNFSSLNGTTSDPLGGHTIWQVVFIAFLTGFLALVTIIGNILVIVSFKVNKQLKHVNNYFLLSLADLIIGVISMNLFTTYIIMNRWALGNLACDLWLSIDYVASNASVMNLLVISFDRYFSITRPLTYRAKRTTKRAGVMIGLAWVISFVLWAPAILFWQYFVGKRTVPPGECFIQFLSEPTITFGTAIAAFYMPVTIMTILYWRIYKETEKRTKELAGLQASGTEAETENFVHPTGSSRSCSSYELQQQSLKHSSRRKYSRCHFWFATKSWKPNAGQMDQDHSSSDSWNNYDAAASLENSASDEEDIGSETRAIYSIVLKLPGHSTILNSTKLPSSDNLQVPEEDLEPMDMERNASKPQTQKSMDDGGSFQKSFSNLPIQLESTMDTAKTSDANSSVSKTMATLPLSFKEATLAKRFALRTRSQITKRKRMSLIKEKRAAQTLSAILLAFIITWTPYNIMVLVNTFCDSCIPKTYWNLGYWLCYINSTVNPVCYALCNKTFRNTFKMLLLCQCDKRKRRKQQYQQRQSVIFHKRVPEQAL
Ki [1],Intrinsic activity [2],Compound
10 µM,–,CC1OC2(CCN(C)CC2)C/C1=N\NC(=O)Cc1ccc2ccccc2c1 (centres undefined)
90 µM,–,CC(C)CC(=O)N/N=C1\CC2(CCN(C)CC2)OC1C (centres undefined)
8.8 µM,–,CCCCCCCC(=O)N(C)/N=C1\CC2(CCN(C)CC2)OC1C (centres undefined)
78 µM,–,CC1OC2(CCN(C)CC2)C/C1=N\NC(=O)c1ccccc1 (centres undefined)
25 µM,–,CCCCCCC(=O)N/N=C1\CC2(CCN(C)CC2)OC1C (centres undefined)
30 µM,–,CC1OC2(CCN(C)CC2)C/C1=N\NC(=O)CC1CCCCC1 (centres undefined)
14.4 µM,–,CCCCCCCCCC(=O)N/N=C1\CC2(CCN(C)CC2)OC1C (centres undefined)
13.6 µM,–,CC1OC2(CCN(C)CC2)C/C1=N\NC(=O)CCCC1CCCCC1 (centres undefined)
34 µM,–,CC1OC2(CCN(C)CC2)C/C1=N\NC(=O)CCCc1ccccc1 (centres undefined)
30 µM,–,CC1OC2(CCN(C)CC2)C/C1=N\NC(=O)Cc1ccccc1 (centres undefined)
25 µM,–,CCCCCC(=O)N/N=C1\CC2(CCN(C)CC2)OC1C (centres undefined)
9.5 µM,81%,CCCCCCCC(=O)N/N=C1\CC2(CCN(C)CC2)OC1C (centres undefined)
4.8 µM,78%,CC1OC2(CCN(C)CC2)C/C1=N\NC(=O)c1ccc(C2CCCCC2)cc1 (centres undefined)
41 µM,–,CCCCC(=O)N/N=C1\CC2(CCN(C)CC2)OC1C (centres undefined)
8 µM,–,CC1OC2(CCN(C)CC2)C/C1=N\NC(=O)CCCCC1CCCCC1 (centres undefined)
38 µM,–,CC1OC2(CCN(C)CC2)C/C1=N\NC(=O)C1CCCCC1 (centres undefined)
16 µM,–,CCCC(=O)N(C)/N=C1\CC2(CCN(C)CC2)OC1C (centres undefined)
15.2 µM,–,CC1OC2(CCN(C)CC2)C/C1=N\NC(=O)C(C)(C)C (centres undefined)
9 µM,–,CCCCCCCCC(=O)N/N=C1\CC2(CCN(C)CC2)OC1C (centres undefined)

Compound,Ki [1],Intrinsic activity [2]
CC(=O)N/N=C1\CC2(CCN(C)CC2)OC1C (centres undefined),100 µM,91%
CCC(=O)N/N=C1\CC2(CCN(C)CC2)OC1C (centres undefined),76 µM,–
CC(=O)N(C)/N=C1\CC2(CCN(C)CC2)OC1C (centres undefined),60 µM,–
COC(=O)N/N=C1\CC2(CCN(C)CC2)OC1C (centres undefined),25 µM,–
CC(C)C(=O)N/N=C1\CC2(CCN(C)CC2)OC1C (centres undefined),28 µM,–
CC(=O)N/N=C1\CC2(CCNCC2)OC1C (centres undefined),180 µM,–
CCCC(=O)N/N=C1\CC2(CCN(C)CC2)OC1C (centres undefined),65 µM,–
